In general, melting point refers to the temperature of the solid-liquid transition. The IC50 is the concentration that gives 50% inhibition.

Data on five compounds can be found in PMC8200971, “Design, Synthesis, Biological Evaluation and Silico Prediction of Novel Sinomenine Derivatives” (Molecules, 2021).

The subject of series [1] is HepG2 (human hepatocellular carcinoma cell lines). As to the kind of experiment: MTT assay, growth inhibition. It is filed as cell-based. As to conditions: HepG2, 20 μM, 24 h. On the procedure:
(§1) The in vitro growth inhibitory activity of the sinomenine derivatives (5a–5k) was evaluated against different three cell lines, MCF-7, Hela, and HepG2, using sinomenine as the reference compound kept under the same conditions in an MTT assay. The inhibition ratios of synthetic compounds were determined at concentrations of 2, 20 and 200 μM.
(§2) The MCF-7 (human breast cancer cell lines), Hela (human cervical cancer cells lines), and HepG2 (human hepatocellular carcinoma cell lines) cells were used to measure the cytotoxicity of the 5a–5k series, which were provided by the Academy of Military Medical Sciences (Beijing, China). The cell lines were maintained on RPMI 1640 nutrient medium supplemented with 10% heat-inactivated fetal bovine serum, 1% L-glutamine, […] and 100 units/mL penicillin. The cells were grown at 37 °C in a humidified atmosphere with 5% CO2 and were subcultured two to three times a week.
(§3) The MTT (3-(4, 5-dimethyl thiazol-2-yl)-2, 5-diphenyl tetrazolium bromide) assay with a slight modification was used to determine the inhibition effects of substrates 5a–5k. MCF-7, Hela and HepG2 were used for testing. Briefly, cells (5.0 × 10^3 cells per well) were seeded in 100 μL of the RPMI-1640 medium in 96-well plates for 24 h, treated with drugs and complete medium in wells up to 200 μL for 24 h. RPMI-1640 samples were employed as negative controls, and cisplatin as a positive control. Four quadruplicates of each concentration for all tested compounds were evaluated in three independent assays. For this, after removing the drug containing media 100 μL, 10 μL of MTT solution was added to wells and incubated for 4 h under similar conditions. After that, the supernatant from each well was removed and the formazan crystals formed by viable cells were dissolved with DMSO (100 μL/well). At the end of incubation, optical densities at 570 nm were measured using a plate reader (BIO-TEK, USA). Cell viability was calculated based on the measured absorbance relative to the absorbance of the cells exposed to the negative control, which represented 100% cell viability.
(In general: Tetrazolium assays rely on reduction of a dye to a coloured formazan, in cell work by metabolically active cells.)

The subject of series [2] is MCF-7 (human breast cancer cell lines). The series can be described thus: MTT assay, growth inhibition. The settings on record: MCF-7, 20 μM, 24 h. It is filed as cell-based. On the procedure: as §1, §2, §3
Series [3] relates to Hela (human cervical cancer cells lines). The series can be described thus: MTT assay, growth inhibition. The format is cell-based. As to conditions: 20 μM, 24 h. On the procedure:
as §1, §2, §3

The test system of series [4] is Hek293 (human embryonic kidney cell lines). As to the kind of experiment: CCK8 cytotoxicity assay, normal cells. It is filed as cell-based. As to conditions: Homo sapiens, HEK293, 60 h; for inhibition at 2.5 µM / inhibition at 25 µM: read-out: growth inhibition ratio (mean ± SD). On the procedure: (§4) Cytotoxicity screens were performed to assess the in vitro anticancer activity of the synthesized sinomenine derivatives 6a–6l on the various cancer cell lines MCF-7, Hela, SW480, and A549, as well as on Hek293 as a normal cell line, at doses of 2.5 and 25 μM. The obtained inhibition ratios data were used to construct a heat map (Figure 3, Tables S1 and S2) in order to select compounds that exert cancer cell line-specific cytotoxicity. Then, the IC50 values of the promising compound were determined. Cisplatin was used as a reference standard. The antiproliferative activity was based on the evaluation of the percent viability using the CCK8 assay, which is a rapid and sensitive method for determining the number of viable cells in culture. In the presence of electronic coupling reagents, WST-8 can be reduced by a dehydrogenase in the mitochondria to produce a highly water-soluble orange-yellow formazan product. Its color is proportional to the proliferation of the number of viable cells and is related to cytotoxicity. Using a microplate reader to measure the OD value can indirectly reflect the number of living cells at 450 nm wavelength.
(§5) To understand structure–function relationships, these selected compounds were subjected to subsequent analyses. All six compounds (6a and 6c–6g) were further examined to determine their IC50 concentrations on the previously mentioned cell lines, and their efficacy was compared to the reference drug cisplatin. For this, six compounds and cisplatin were evaluated on Hela, MCF-7, SW480, and A549, and on noncancerous Hek293 cell lines at various concentrations for 60 h. IC50 values were calculated (Table 2).
(§6) The MCF-7 (human breast cancer cell lines), Hela (human cervical cancer cell lines), SW480 (human colon adenocarcinoma cell lines), A549 (human lung adenocarcinoma cell lines) and nontoxic normal cells Hek293 (human embryonic kidney cell lines) cells were used to measure the cytotoxicity of the 6a–6l. They were obtained from the Beijing Normal University (Beijing, China). The test cell lines were cultured in DMEM, IMDM, F12 and DMEM nutrient medium containing 10% heat-inactivated fetal bovine serum, […] and 100 units/mL penicillin in a humified, 5% (v/v) CO2 atmosphere at 37 °C.
(§7) Cell viability was estimated using the CCK8 assay. Tumor cells ([…]) viz. MCF-7, Hela, SW480, A549 and nontoxic normal cells Hek293 were seeded in medium containing Corning® 96-well tissue culture plates at confluences of […], respectively, in Incucyte ZOOM. Fresh medium (100 μL) containing different concentrations of the test sample was added after 12 h of seeding. The microtiter plates were incubated at 37 °C in a humidified incubator with 5% CO2 for 60 h. Triplicates from each concentration were used. Negative control cells were incubated without sample and cisplatin as a positive control. At the end of treatment, the numbers of viable cells were determined by the CCK8 test. In brief, the media was removed from the 96 well plates and replaced with 100 μL of fresh culture medium with 10% CCK8 solution added to each well including the untreated controls. The 96 well plates were then incubated at 37 °C and 5% CO2 for 1–4 h. Then, the absorbance was measured at 450 nm using a BMG LABTECH®-POLAR star Omega microplate reader (Ortenberg, Germany) to determine the number of viable cells, and the percentage of viability was calculated as ((ODt- ODb/ODc- ODb)) × 100%, where ODt is the mean optical density of wells treated with the tested sample, ODc is the mean optical density of wells treated with DMSO and ODb is the mean optical density of PBS wells without cells. The relation between surviving cells and drug concentrations were plotted to get the survival curve of each tumor cell line after treatment with the specified compound. […]

Series [5] deals with A549 (human lung adenocarcinoma cell lines). The series can be described thus: CCK8 cytotoxicity assay. It is filed as cell-based. As to conditions: Homo sapiens, A549, 60 h; for inhibition at 2.5 µM / inhibition at 25 µM: read-out: growth inhibition ratio (mean ± SD). On the procedure:
as §4, §5, §6, §7

Series [6] relates to MCF-7 (human breast cancer cell lines). The series can be described thus: CCK8 cytotoxicity assay. The format is cell-based. The settings on record: Homo sapiens, MCF7, 60 h; for inhibition at 2.5 µM / inhibition at 25 µM: read-out: growth inhibition ratio (mean ± SD). On the procedure:
as §4, §5, §6, §7

In series [7] the test system is Hela (human cervical cancer cell lines). The series can be described thus: CCK8 cytotoxicity assay. As to conditions: Homo sapiens, HeLa, 60 h; for inhibition at 2.5 µM / inhibition at 25 µM: read-out: growth inhibition ratio (mean ± SD). It is filed as cell-based. On the procedure: as §4, §5, §6, §7
The subject of series [8] is SW480 (human colon adenocarcinoma cell lines). The series can be described thus: CCK8 cytotoxicity assay. The format is cell-based. As to conditions: Homo sapiens, SW480, 60 h; for inhibition at 2.5 µM / inhibition at 25 µM: read-out: growth inhibition ratio (mean ± SD). On the procedure:
as §4, §5, §6, §7

Each structure is given as a SMILES string.

`COC1=C[C@@H]2[C@@H]3Cc4c(CN5CCCCC5)cc(OC)c(OC(=O)Cc5cccc(Cl)c5)c4[C@]2(CCN3C)CC1=O` [5g, (4bR,8aS,9S)-3,7-dimethoxy-11-methyl-6-oxo-1-(piperidin-1-ylmethyl)-6,8a,9,10-tetrahydro-5H-9,4b-(epiminoethano)phenanthren-4-yl 2-(3-chlorophenyl)acetate] yielded a melting point of 164 to 167 °C. The inhibition ratio entry in [1] is given as “more than 53.2%”.
As to `COC1=C[C@@H]2[C@@H]3Cc4c(CN5CCCCC5)cc(OC)c(OC(=O)Cc5ccc(Cl)c(Cl)c5)c4[C@]2(CCN3C)CC1=O` [5j, (4bR,8aS,9S)-3,7-dimethoxy-11-methyl-6-oxo-1-(piperidin-1-ylmethyl)-6,8a,9,10-tetrahydro-5H-9,4b-(epiminoethano)phenanthren-4-yl 2-(3,4-dichlorophenyl)acetate], the melting point was 143 to 146 °C. For the same compound, the inhibition ratio in [2] was 63.35%. In addition, the inhibition ratio in [1] is 89.57%. Further, the inhibition ratio in series [3] came out at 80.22%.
On to `COC1=C[C@@H]2[C@@H]3Cc4c(CN5CCCC5)cc(OC)c(OC(=O)Cc5cccc(Cl)c5)c4[C@]2(CCN3C)CC1=O` [6e, (4bR,8aS,9S)-3,7-dimethoxy-11-methyl-6-oxo-1-(pyrrolidin-1-ylmethyl)-6,8a,9,10-tetrahydro-5H-9,4b-(epiminoethano)phenanthren-4-yl 2-(3-chlorophenyl)acetate], for which the melting point was in the range of 68 to 72 °C. In addition, the IC50 in series [4] (read-out: IC50 Hek293) turned out to be 16.6 ± 0.64 µM. In addition, in series [4], the inhibition at 2.5 µM turned out to be 14.4 ± 2.54% and the inhibition at 25 µM turned out to be 63.3 ± 11.4%. Besides, the 50% inhibitory concentration (IC50) in [5] (read-out: IC50 A549) was 17.9 ± 0.74 µM. In addition, in series [5], the inhibition at 2.5 µM was found to be 25.6 ± 1% and the inhibition at 25 µM was found to be 61.06 ± 0.13%. Moreover, in series [6] (read-out: IC50 MCF-7), the IC50 turned out to be 14.9 ± 0.15 µM. In series [6], the inhibition at 2.5 µM was determined as 6.92 ± 2.62% and the inhibition at 25 µM stood at 77.85 ± 0.45%. The IC50 in series [7] (read-out: IC50 Hela) was 13.3 ± 0.95 µM. Besides, in series [7], the inhibition at 2.5 µM is 3.21 ± 2.37% and the inhibition at 25 µM was 80.9 ± 2.05%. For the same compound, the IC50 in series [8] (read-out: IC50 SW480) is above 25 µM. In [8], the inhibition at 2.5 µM turned out to be 29.4 ± 7.71% and the inhibition at 25 µM came out at 61 ± 7.14%.
As for `COC1=C[C@@H]2[C@@H]3Cc4c(CN5CCCC5)cc(OC)c(OC(=O)Cc5ccccc5OC)c4[C@]2(CCN3C)CC1=O` [6k, (4bR,8aS,9S)-3,7-dimethoxy-11-methyl-6-oxo-1-(pyrrolidin-1-ylmethyl)-6,8a,9,10-tetrahydro-5H-9,4b-(epiminoethano)phenanthren-4-yl 2-(2-methoxyphenyl)acetate], the melting point is 180 to 182 °C. In series [4], the inhibition at 2.5 µM was found to be 13.9 ± 4.06% and the inhibition at 25 µM is 63.5 ± 10.2%. For the same compound, in series [5], the inhibition at 2.5 µM was 16.6 ± 2.3% and the inhibition at 25 µM turned out to be 51.9 ± 6.36%. Also, in series [6], the inhibition at 2.5 µM was found to be 0.75 ± 1.29% and the inhibition at 25 µM is 24.4 ± 11%. In [7], the inhibition at 2.5 µM worked out at 0% and the inhibition at 25 µM came out at 44.1 ± 0.92%. In [8], the inhibition at 2.5 µM is 3.72 ± 1.8% and the inhibition at 25 µM came to 36.9 ± 0.52%.
Compound `COC1=C[C@@H]2[C@@H]3Cc4c(CN5CCCCC5)cc(OC)c(OC(=O)Cc5ccc(Cl)cc5Cl)c4[C@]2(CCN3C)CC1=O` [5i, (4bR,8aS,9S)-3,7-dimethoxy-11-methyl-6-oxo-1-(piperidin-1-ylmethyl)-6,8a,9,10-tetrahydro-5H-9,4b-(epiminoethano)phenanthren-4-yl 2-(2,4-dichlorophenyl)acetate] returned a melting point of 135 to 137 °C. For the same compound, the inhibition ratio in series [2] turned out to be 54.13%. Also, in series [1], the inhibition ratio amounted to 90.69%. For the same compound, the inhibition ratio in series [3] is given as 94.43%.
